“And” between values parts separate entries of the source, which are not always exact repeats. Equal values may be shown once.
Assays:
MEK½ = tested on: T1, MEK½; conditions: Pheneger et al., 2006; read-out: Primary Target(s) (IC50): MEK½; cited from earlier work
T1 construct: other: Pheneger et al., 2006

MEK1 = MEK1 (Homo sapiens, UniProt Q02750); conditions: read-out: Primary Target(s) (IC50): MEK1; cited from earlier work
A875 = assay: Melanoma cell viability (CellTiter-Glo); format: cell-based, human; conditions: for HuMax-AXL-ADC sensitivity: 0.0001 to 10 µg/mL, 5 days
SKMEL2 = assay: NRAS mutant melanoma cell viability (CellTiter-Glo); format: cell-based, human
BLM = assay: as above; format: cell-based, human
SKMEL28R = assay: Melanoma cell viability (CellTiter-Glo); format: cell-based, human; conditions: for HuMax-AXL-ADC sensitivity: 0.0001 to 10 µg/mL, 5 days
A375R = assay: Melanoma cell viability (CellTiter-Glo); format: cell-based, human
M082 = assay: Patient-derived melanoma culture viability (CellTiter-Glo); format: cell-based, human; conditions: for HuMax-AXL-ADC sensitivity: 8 days
M016 = assay: as above; format: cell-based, human; conditions: for HuMax-AXL-ADC sensitivity: 8 days
SKMEL2R = assay: NRAS mutant melanoma cell viability (CellTiter-Glo); format: cell-based, human
SKMEL147 = assay: Melanoma cell viability (CellTiter-Glo); format: cell-based, human; conditions: for HuMax-AXL-ADC sensitivity: 0.0001 to 10 µg/mL, 5 days
FM6 = assay: NRAS mutant melanoma cell viability (CellTiter-Glo); format: cell-based, human
M019R = assay: Patient-derived melanoma culture viability (CellTiter-Glo); format: cell-based, human
SKMEL28 = assay: Melanoma cell viability (CellTiter-Glo); format: cell-based, human; conditions: for HuMax-AXL-ADC sensitivity: 0.0001 to 10 µg/mL, 5 days
C-Raf/BRAF/BRAF V600E = conditions: read-out: Primary Target(s) (IC50): C-Raf/BRAF/BRAF V600E; Mordant et al., 2010; cited from earlier work
C-Raf = C-Raf (Homo sapiens, UniProt P04049); conditions: literature reference per drug in Table 1; read-out: Primary Target(s) (IC50): C-Raf (also printed Raf-1, C-Raf-1, C-RAF); cited from earlier work
Sequence of C-Raf (P04049 whole entry): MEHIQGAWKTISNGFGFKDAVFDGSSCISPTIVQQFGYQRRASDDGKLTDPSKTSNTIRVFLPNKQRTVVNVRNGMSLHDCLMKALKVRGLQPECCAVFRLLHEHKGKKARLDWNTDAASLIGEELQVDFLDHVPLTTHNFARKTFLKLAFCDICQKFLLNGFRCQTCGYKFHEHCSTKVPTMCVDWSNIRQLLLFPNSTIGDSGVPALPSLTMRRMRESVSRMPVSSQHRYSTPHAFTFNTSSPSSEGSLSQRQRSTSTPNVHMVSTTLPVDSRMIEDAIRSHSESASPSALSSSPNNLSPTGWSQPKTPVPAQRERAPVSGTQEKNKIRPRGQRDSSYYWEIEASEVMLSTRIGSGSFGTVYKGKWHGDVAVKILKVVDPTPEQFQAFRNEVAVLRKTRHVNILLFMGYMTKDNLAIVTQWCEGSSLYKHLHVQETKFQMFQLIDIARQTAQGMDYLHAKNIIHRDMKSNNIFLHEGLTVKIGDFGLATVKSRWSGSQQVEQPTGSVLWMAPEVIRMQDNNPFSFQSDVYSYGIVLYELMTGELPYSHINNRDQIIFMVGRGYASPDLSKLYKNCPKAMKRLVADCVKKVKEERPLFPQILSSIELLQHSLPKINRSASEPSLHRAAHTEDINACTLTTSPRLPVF

MAP4K5 (KHS1) = MAP4K5 (KHS1) (Homo sapiens, UniProt Q9Y4K4); conditions: Bollag et al., 2010; read-out: Primary Target(s) (IC50): MAP4K5 (KHS1); cited from earlier work
Sequence of MAP4K5 (KHS1) (Q9Y4K4 whole entry, species assumed): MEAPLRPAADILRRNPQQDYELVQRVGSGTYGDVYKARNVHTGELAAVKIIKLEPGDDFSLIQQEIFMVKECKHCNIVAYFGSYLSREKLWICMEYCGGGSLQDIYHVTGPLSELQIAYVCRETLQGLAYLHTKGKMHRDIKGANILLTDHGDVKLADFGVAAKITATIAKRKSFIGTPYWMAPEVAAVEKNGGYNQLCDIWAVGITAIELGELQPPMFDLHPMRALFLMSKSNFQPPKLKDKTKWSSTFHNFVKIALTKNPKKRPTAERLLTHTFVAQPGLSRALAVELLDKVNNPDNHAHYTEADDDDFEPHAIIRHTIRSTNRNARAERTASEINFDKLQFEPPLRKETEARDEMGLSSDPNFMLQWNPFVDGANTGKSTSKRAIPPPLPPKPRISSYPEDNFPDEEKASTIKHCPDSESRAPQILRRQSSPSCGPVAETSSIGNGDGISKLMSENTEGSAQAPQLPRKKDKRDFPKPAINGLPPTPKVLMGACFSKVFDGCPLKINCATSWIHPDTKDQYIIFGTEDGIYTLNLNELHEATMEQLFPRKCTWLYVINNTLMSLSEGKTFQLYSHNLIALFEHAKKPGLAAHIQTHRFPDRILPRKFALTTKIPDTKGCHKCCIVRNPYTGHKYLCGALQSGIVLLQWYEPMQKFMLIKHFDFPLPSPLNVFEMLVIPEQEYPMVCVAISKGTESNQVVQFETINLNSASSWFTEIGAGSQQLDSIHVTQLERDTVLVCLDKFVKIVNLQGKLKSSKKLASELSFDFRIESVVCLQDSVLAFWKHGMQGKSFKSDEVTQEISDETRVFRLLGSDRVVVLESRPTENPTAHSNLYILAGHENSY

A431 tumors = assay: A431 xenograft model (high Gas6); format: in vivo, SCID mice; conditions: 3 mg/kg
Description: (§1) Tumor induction was performed by subcutaneous injection of 5 × 10^6 A431 or LCLC-103H tumor cells (both obtained from Leibniz-Institut - Deutsche Sammlung von Mikroorganismen und Zellkulturen GmbH (DSMZ)) in 200 µL PBS in the right flank of female SCID mice. Treatment was started 14-21 days after tumor cell inoculation, when the average tumor size was >100-200 mm^3 and distinct tumor growth was observed. Mice received a single injection or a total of 4 biweekly intraperitoneal injections with IgG1-AXL-vcMMAE ADCs or control antibody (unconjugated IgG1-b12), as indicated. Tumor volume was determined at least two times per week. Tumor volumes (mm^3) were calculated from caliper (PLEXX) measurements as: 0.52 × (length) × (width)^2.

PAXF1657 tumors = assay: PAXF1657 pancreas cancer PDX model; format: in vivo, NMRI nu/nu mice; conditions: day 0
COLO679 = assay: Melanoma cell viability (CellTiter-Glo); format: cell-based, human; conditions: 0.0001 to 10 µg/mL, 5 days
SKMEL147 tumors = assay: SKMEL147 melanoma xenograft model; format: in vivo, NMRI nude mice
[1] = tested on: LCLC-103H xenograft tumors; assay: LCLC-103H xenograft model; format: in vivo, SCID mice
Description: 5 × 10^6 LCLC-103H (large cell lung carcinoma) tumor cells (obtained from Leibniz-Institut DSMZ-Deutsche Sammlung von Mikroorganismen und Zellkulturen GmbH (DSMZ)) in 200 µL PBS were injected subcutaneously in the right flank of female SCID mice. Starting 14-21 days after tumor cell inoculation, when the average tumor size was >100-200 mm^3 and distinct tumor growth was observed, a single injection with 1 mg/kg (20 µg/mouse) IgG1-AXL-vcMMAE antibodies (as described in Supplementary Example 1) or control (unconjugated IgG1-b12) was given intraperitoneally (100 µL/mouse). Tumor volume was determined at least two times per week. Tumor volumes (mm^3) were calculated from caliper (PLEXX) measurements as: 0.52 × (length) × (width)^2.
as §1, with “Mice received a single injection or a total of 4 biweekly intraperitoneal injections with IgG1-AXL-vcMMAE ADCs or control antibody (unconjugated IgG1-b12), as indicated.” left out

A431 cells = assay: Antibody-dependent cell-mediated cytotoxicity (51Cr release); format: cell-based, human; conditions: concentrations up to 10 µg/mL; PBMC effector to target ratio 100:1
Description: The ability of anti-AXL antibodies to induce ADCC of A431 epidermoid carcinoma cells was determined as explained below. As effector cells, peripheral blood mononuclear cells from healthy volunteers (UMC Utrecht, The Netherlands) were used.
A431 cells were collected (5×10^6 cells) in culture medium (RPMI 1640 culture medium supplemented with 10% fetal calf serum (FSC)), to which 100 µCi ^51Cr (Chromium-51; Amersham Biosciences Europe GmbH, Roosendaal, The Netherlands) had been added, and the mixture was incubated in a 37° C. water bath for 1 hour (hr) while shaking. After washing of the cells (twice in PBS, 1200 rpm, 5 min), the cells were resuspended in RPMI1640/10% FSC and counted by trypan blue exclusion. […]
Peripheral blood mononuclear cells (healthy volunteers, UMC Utrecht, Utrecht, The Netherlands) were isolated from 45 mL of freshly drawn heparin blood by Ficoll (Bio Whittaker; lymphocyte separation medium, cat 17-829E) according to the manufacturer’s instructions. After resuspension of cells in RPMI1640/10% FSC, cells were counted by trypan blue exclusion and diluted to a density of 1×10^7 cells/mL.
50 µl of ^51Cr-labeled targets cells were pipetted into 96-well plates, and 50 µl of antibody were added, diluted in RPMI1640/10% FSC (3-fold dilutions at final concentrations range 0.01-10 µg/mL). […] The percentage specific lysis was calculated as follows: […]

[2] = 4 mg/kg i.v. on day 12 and day 19 after tumor cell injection

Sequence of MEK1 (Q02750 whole entry): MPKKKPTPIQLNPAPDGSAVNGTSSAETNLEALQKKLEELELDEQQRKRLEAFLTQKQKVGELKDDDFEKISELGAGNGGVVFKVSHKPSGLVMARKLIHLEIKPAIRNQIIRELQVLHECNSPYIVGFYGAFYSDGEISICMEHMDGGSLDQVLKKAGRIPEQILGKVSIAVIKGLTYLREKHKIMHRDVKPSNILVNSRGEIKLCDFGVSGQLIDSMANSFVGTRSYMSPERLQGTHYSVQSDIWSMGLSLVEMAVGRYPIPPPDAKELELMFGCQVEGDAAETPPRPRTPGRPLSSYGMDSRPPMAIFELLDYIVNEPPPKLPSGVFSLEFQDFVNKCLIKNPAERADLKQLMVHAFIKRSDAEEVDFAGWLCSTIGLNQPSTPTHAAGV

In the case of `Cn1cnc2c(F)c(Nc3ccc(Br)cc3F)c(C(=O)NOCCO)cc21` [Binimetinib, 1H-Benzimidazole-6-carboxamide, 5-[(4-bromo-2-fluorophenyl)amino]-4-fluoro-N-(2-hydroxyethoxy)-1-methyl-], the IC50 (MEK½) is listed as ~12 nM and 12 nM.
In the case of `O=C(c1ccc(F)c(F)c1Nc1ccc(I)cc1F)N1CC(O)([C@@H]2CCCCN2)C1` [Cobimetinib, [3,4-difluoro-2-[(2-fluoro-4-iodophenyl)amino]phenyl][3-hydroxy-3-(2S)-2-piperidinyl-1-azetidinyl]-methanone], the IC50 (MEK1) is listed as about 4.2 nM.
In the case of `CCCS(=O)(=O)Nc1ccc(F)c(C(=O)c2c[nH]c3ncc(Cl)cc23)c1F` [PLX4720, N-(3-(5-chloro-1H-pyrrolo[2,3-b]pyridine-3-carbonyl)-2,4-difluorophenyl)propane-1-sulfonamide], the PLX4720 sensitivity (A875) is reported as “sensitive”, the PLX4720 sensitivity (SKMEL2) is reported as “insensitive” and the PLX4720 sensitivity (BLM) is reported as “insensitive”. The PLX4720 sensitivity (SKMEL28R) was “resistant”, the PLX4720 sensitivity (A375R) was “resistant” and the PLX4720 sensitivity (M082) was “resistant”. The PLX4720 sensitivity (M016) was “resistant”, the PLX4720 sensitivity (SKMEL2R) was “insensitive” and the PLX4720 sensitivity (SKMEL147) was “resistant”. For the same molecule, the PLX4720 sensitivity (FM6) was “insensitive”, the PLX4720 sensitivity (M019R; M019R (Table 16)) was “resistant” and the “drug sensitivity in vitro: PLX4720 sensitivity” value (M019R; M019R, 8 days) was “insensitive”. The PLX4720 sensitivity (SKMEL28) was “sensitive”.
In the case of `Cn1c(Nc2ccc(C(F)(F)F)cc2)nc2cc(Oc3ccnc(-c4ncc(C(F)(F)F)[nH]4)c3)ccc21` [RAF265, 1-methyl-5-[2-[5-(trifluoromethyl)-1H-imidazol-2-yl]pyridin-4-yl]oxy-N-[4-(trifluoromethyl)phenyl]benzimidazol-2-amine], the IC50 (C-Raf/BRAF/BRAF V600E) is listed as 3 to 60 nM.
In the case of `CN(C)CCOc1ccc(-c2nc(-c3ccncc3)c(-c3ccc4c(c3)CC/C4=N\O)[nH]2)cc1` [SB590885, (E)-5-(2-(4-(2-(dimethylamino)ethoxy)phenyl)-4-(pyridin-4-yl)-1H-imidazol-5-yl)-2,3-dihydroinden-1-one oxime], the IC50 (C-Raf) is given as 1.72 nM.
In the case of `CC(=O)Nc1cccc(-n2c(=O)n(C3CC3)c(=O)c3c(Nc4ccc(I)cc4F)n(C)c(=O)c(C)c32)c1` [Trametinib, N-(3-(3-cyclopropyl-5-(2-fluoro-4-iodophenylamino)-6,8-dimethyl-2,4,7-trioxo-3,4,6,7-tetrahydropyrido[4,3-d]pyrimidin-1(2H)-yl)phenyl)acetamide], the trametinib sensitivity (SKMEL2) is reported as “sensitive”, the trametinib sensitivity (SKMEL2R) is reported as “insensitive” and the “drug sensitivity in vitro: trametinib sensitivity” value (M019R; M019R, 8 days) is reported as “insensitive”.
In the case of `CCCS(=O)(=O)Nc1ccc(F)c(C(=O)c2c[nH]c3ncc(-c4ccc(Cl)cc4)cc23)c1F` [Vemurafenib, N-[3-[[5-(4-chlorophenyl)-1H-pyrrolo[2,3-b]pyridin-3-yl]carbonyl]-2,4-difluorophenyl]-1-propanesulfonamide], the IC50 (MAP4K5 (KHS1)) is listed as 51 nM.
With IgG1-AXL-107-vcMMAE the “anti-tumor activity in the A431 xenograft model” value (A431 tumors) was “growth inhibition”, the HuMax-AXL-ADC sensitivity (A875) was “sensitive” and the HuMax-AXL-ADC sensitivity (A875; listed as HuMax-AXL-ADC) was “Sensitive”. The “growth of PAXF1657 tumors compared to the control group” value (PAXF1657 tumors; 2 mg/kg i.v.) was “significantly reduced the growth”, the “growth of PAXF1657 tumors” value (PAXF1657 tumors; 4 mg/kg i.v.) was “induced tumor regression” and the HuMax-AXL-ADC sensitivity (SKMEL28R) was “sensitive”. The HuMax-AXL-ADC sensitivity (SKMEL28R; listed as HuMax-AXL-ADC) was “Sensitive”, the HuMax-AXL-ADC sensitivity (COLO679) was “did not show changes in viability” and the HuMax-AXL-ADC sensitivity (COLO679; listed as HuMax-AXL-ADC) was “Resistant”. The HuMax-AXL-ADC sensitivity (M082) was “did not show a different response”, the HuMax-AXL-ADC sensitivity (M082; listed as HuMax-AXL-ADC) was “Insensitive” and the HuMax-AXL-ADC sensitivity (M016) was “sensitive”. For the same molecule, the HuMax-AXL-ADC sensitivity (M016; listed as HuMax-AXL-ADC) was “Sensitive”, the HuMax-AXL-ADC sensitivity (SKMEL147) was “sensitive” and the HuMax-AXL-ADC sensitivity (SKMEL147; listed as HuMax-AXL-ADC) was “Sensitive”. The “anti-tumor activity in the SKMEL147 melanoma xenograft model” value (SKMEL147 tumors; 2 mg/kg i.v. on day 12 and day 19 after tumor cell injection) was “tumor growth inhibition”, the “day until which tumor regression lasted” value (SKMEL147 tumors; 4 mg/kg) was about 50 days and the “anti-tumor activity in the SKMEL147 melanoma xenograft model” value (SKMEL147 tumors; [2]) was “strong tumor regression”. The “anti-tumor activity in the SKMEL147 melanoma xenograft model” value (SKMEL147 tumors; 4 mg/kg i.v. on day 12 and day 19 after tumor cell injection, listed as HuMax-AXL-ADC) was “profound anti-tumor effect”, the “effect of retreatment after tumor regrowth” value (SKMEL147 tumors; single dose of 4 mg/kg on day 55, n=4) was “tumor regression in all four mice” and the “anti-tumor activity in the LCLC-103H xenograft model” value ([1]; 1 mg/kg (Example 13, FIG. 14B)) was “regression”. The “anti-tumor activity in established SC LCLC-103H tumors” value ([1]; single injection 1 mg/kg intraperitoneally (Example 9)) was “tumor regression”, the HuMax-AXL-ADC sensitivity (SKMEL28) was “did not show changes in viability” and the HuMax-AXL-ADC sensitivity (SKMEL28; listed as HuMax-AXL-ADC) was “Resistant”.
With “IgG1-AXL-107: AXL-specific human IgG1,κ antibody, VH SEQ ID NO:1, VL SEQ ID NO:2, Ig1 domain binding” the “ADCC in A431 cells (percentage specific lysis)” value (A431 cells) was “did not induce significant ADCC” and the “anti-tumor activity in the SKMEL147 melanoma xenograft model” value (SKMEL147 tumors; [2]) was “did not show tumor growth inhibition”.

Reference: patent US20230321261A1, “AXL-SPECIFIC ANTIBODY-DRUG CONJUGATES FOR CANCER TREATMENT” (GENMAB A/S, priority 2016, published 2023)
